Test results published in patent publication US7919101B2 (priority 2008, dated 2011).
Several values for one entry are separate records, joined by “and”; a condition that tells them apart may be missing. Identical values can stand only once. Like-named read-outs stand apart in the source and are kept apart here. Residues, ends and D or L forms follow the SMILES beside them.

Tests used:
[1] = tested on: HIV-1-mediated cell-cell fusion (H9/HIV-1IIIB cells and MT-2 cells); assay: HIV-1-mediated cell-cell fusion, dye transfer assay; type: cell-based
Procedure: The inhibitory activities of the compounds on HIV-induced cell-cell fusion were determined using a dye transfer assay (Jiang S et al. Proc SPIE 3926:212-219, 2000). Briefly, H9/HIV-1IIIB cells were pre-labeled with a fluorescent dye, Calcein AM (Molecular Probes, Inc.), and incubated with a testing compound at a graded concentration at 37° C. for 30 min in a 96-well cell culture plate. Then the CD4^+ MT-2 cells were added to the H9/HIV-1IIIB cells at a ratio of 10:1, followed by incubation at 37° C. for 2 hrs. The fused and unfused calcein-labeled HIV-1-infected cells were counted under an inverted fluorescence microscope with an eyepiece micrometer disc.

[2] = tested on: HIV-1 93IN101 (subtype C, R5); details: for Dose reduction: 93IN101
Procedure: (§1) Inhibitory activity of fusion/entry inhibitors on infection by a primary HIV-1 isolate was determined as previously described (Jiang S et al. Antimicrob Agents Chemother 48:4349-4359, 2004). Peripheral blood mononuclear cells (PBMCs) were isolated from the blood of healthy donors by standard density gradient centrifugation using Histopaque-1077 (Sigma). The cells were plated in 75 cm^2 plastic flasks and incubated at 37° C. for 2 hrs. The nonadherent cells were collected and resuspended at 5×10^6 in 10 ml RPMI-1640 medium containing 10% FBS, 5 μg/ml PHA (phytohemagglutinin) and 100 U/ml IL-2 (Sigma), followed by incubation at 37° C. for 3 days. The PHA-stimulated cells were infected with a primary HIV-1 isolates at 0.01 MOI in the absence or presence of a compound at graded concentrations. Culture media were changed every 3 days. The supernatants were collected 7 days post-infection and tested for p24 antigen by ELISA as described above. The percent inhibition of p24 production and EC50 values were calculated as described above.
(§2) 4. Synergy analysis. […] In all analyses, HIV fusion/entry inhibitors were assumed to act noncompetitively, which led to a more conservative estimate of synergy. CI values<1 and >1 indicate synergy and antagonism, respectively. Dose reductions were calculated as the compound concentrations required for inhibition of HIV-1 replication when the compound was used alone and in combination. The statistic analysis was performed by the One-Way Analysis of Variance (One-Way ANOVA) method using Origin 6.1 software.

[3] = in vivo; cited from earlier work
[4] = tested on: HIV-1 RU570 (clade G, R5); assay: Inhibition of infection by primary HIV-1 isolate RU570; type: cell-based; details: for Dose reduction: RU570
Procedure: as §1, §2

[5] = in combination T-20:T-1144 (4:1)
[6] = in combination T-20:T-1144 (4:1) vs alone
[7] = in combination T-20:T-1249:T-1144 (4:1:1)
[8] = in combination T-20:T-1249:T-1144 (4:1:1) vs alone
[9] = in combination T-1144:C34 (2:1)
[10] = in combination T-1144:C34 (2:1) vs alone
[11] = in combination T-1249:T-1144 (1:1)
[12] = in combination T-1249:T-1144 (1:1) vs alone

Structure (SMILES): CC[C@H](C)[C@H](NC(=O)[C@H](C)NC(=O)[C@H](CCCNC(=N)N)NC(=O)[C@H](CC(=O)O)NC(=O)[C@H](Cc1c[nH]c2ccccc12)NC(=O)[C@H](C)NC(=O)[C@H](CCC(=O)O)NC(=O)[C@H](Cc1c[nH]c2ccccc12)NC(=O)[C@@H](NC(=O)[C@@H](NC(C)=O)[C@@H](C)O)[C@@H](C)O)C(=O)N[C@@H](C)C(=O)N[C@@H](CCC(=O)O)C(=O)N[C@@H](Cc1ccc(O)cc1)C(=O)N[C@@H](C)C(=O)N[C@@H](C)C(=O)N[C@@H](CCCNC(=N)N)C(=O)N[C@H](C(=O)N[C@@H](CCC(=O)O)C(=O)N[C@@H](C)C(=O)N[C@@H](CC(C)C)C(=O)N[C@@H](CC(C)C)C(=O)N[C@@H](CCCNC(=N)N)C(=O)N[C@@H](C)C(=O)N[C@@H](CC(C)C)C(=O)N[C@@H](CCC(N)=O)C(=O)N[C@@H](CCC(=O)O)C(=O)N[C@@H](CCC(N)=O)C(=O)N[C@@H](CCC(N)=O)C(=O)N[C@@H](CCC(=O)O)C(=O)N[C@@H](CCCCN)C(=O)N[C@@H](CC(N)=O)C(=O)N[C@@H](CCC(=O)O)C(=O)N[C@@H](C)C(=O)N[C@@H](C)C(=O)N[C@@H](CC(C)C)C(=O)N[C@@H](CCCNC(=N)N)C(=O)N[C@@H](CCC(=O)O)C(=O)N[C@@H](CC(C)C)C(N)=O)[C@@H](C)CC [T-1144] (Ac-TTWEAWDRAIAEYAARIEALLRALQEQQEKNEAALREL-NH2; N-terminus and C-terminus assumed)
- EC70 Concentration Mix [1, 5]: 0.008 nM
- EC95 Concentration Mix [1, 5]: 0.013 nM
- Potency increase at EC50 [1, 6]: 435.500 fold
- Potency increase at EC70 [1, 6]: 444.250 fold
- Potency increase at EC90 [1, 6]: > 438 fold and 439.455 fold
- Potency increase at EC95 [1, 6]: 458.462 fold
- EC70 Concentration Mix [1, 7]: 0.005 nM
- EC95 Concentration Mix [1, 7]: 0.007 nM
- Potency increase at EC50 [1, 8]: 653.250 fold
- Potency increase at EC70 [1, 8]: 710.800 fold
- Potency increase at EC90 [1, 8]: 805.667 fold
- Potency increase at EC95 [1, 8]: 851.429 fold
- EC90 ([1]; in combination T-20:T-1249:T-1144 (4:1:1), read-out: EC90 Concentration Mix): 0.006 nM
- EC70 Concentration Mix [1, 9]: 0.408 nM
- EC95 Concentration Mix [1, 9]: 0.659 nM
- Potency increase at EC50 [1, 10]: 8.511 fold
- Potency increase at EC70 [1, 10]: 8.711 fold
- Potency increase at EC95 [1, 10]: 9.044 fold
- EC90 ([1]; in combination T-1144:C34 (2:1), read-out: EC90 Concentration Mix): 0.543 nM
- EC70 Concentration Mix [1, 11]: 0.232 nM
- EC95 Concentration Mix [1, 11]: 0.374 nM
- Potency increase at EC50 [1, 12]: 15.017 fold
- Potency increase at EC70 [1, 12]: 15.319 fold
- Potency increase at EC90 [1, 12]: 15.695 fold
- Potency increase at EC95 [1, 12]: 15.936 fold
- EC90 ([1]; in combination T-1249:T-1144 (1:1), read-out: EC90 Concentration Mix): 0.308 nM
- EC70 Concentration Alone ([1]; peptide tested alone): 3.554 nM
- EC95 Concentration Alone ([1]; peptide tested alone): 5.960 nM
- EC50 ([1]; peptide tested alone, read-out: EC50 Concentration Alone): 2.61 nM
- EC90 ([1]; peptide tested alone, read-out: EC90 Concentration Alone): 4.83 nM
- Dose reduction ([2]; T-20+T-1249+T-1144 4:1:1): 24.17 fold
- Dose reduction ([2]; T-20 combined with T-1144): 14.46 fold
- EC50 ([2]; read-out: EC50 alone, 93IN101 (C, R5) primary isolate, peptide alone): 15.5 nM
- pharmacokinetic properties improved [3]: up to 100 fold
- EC50 ([4]; RU570 (G, R5) primary isolate, peptide alone, read-out: EC50 alone): 24.2 nM
- Dose reduction ([4]; T-20+T-1249+T-1144 4:1:1): 21.23 fold
- Dose reduction ([4]; T-20 combined with T-1144): 18.62 fold
